Measurements as given in patent US6664273B2, “Piperidine based MCH antagonists for treatment of obesity and CNS disorders” (Schering Corporation, priority 2001, dated 2003).

Target: T1, MCH receptor (Homo sapiens, UniProt Q99705)
T1 construct: expressed in transfected cells; host or cells: CHO cells
Experiment: MCH Receptor Binding Assay
Conditions: [125I]-MCH, SPA, membranes from CHO cells expressing the MCH receptor
Experimental: Membranes from CHO cells expressing the MCH receptor were prepared by lysing cells with 5 mM HEPES for 15 min at 4C. Cell lysates were centrifuged ([…], 15 min) and the pellet was re-suspended in 5 mM HEPES. For each 96-well plate (Microlite, Dynex Technologies), 1 mg of cell membranes were incubated with 10 mg of wheat germ agglutinin SPA beads (Amersham) for 5 min at 4 C in a volume of 10 ml of binding buffer (25 mM HEPES, 10 mM MGCl2, 10 mM NaCl, 5 mM MnCl2, 0.1% BSA). The membrane/bead mixture was centrifuged (1500×g, 3.5 min), the supernatant was aspirated, and the pellet was re-suspended in 10 ml binding buffer. The centrifugation, aspiration and re-suspension were then repeated. The membrane/bead mixture (100 μl) was then added to 96-well plates containing 50 μl of 500 pM [^125I]-MCH (NEN) and […] of the appropriate concentration of compound (4× the desired final concentration). Nonspecific binding was determined by including 1 μM MCH in the binding reaction. The binding reaction was incubated at room temperature for 2 h. Plates were then analyzed in a TOPCOUNT microplate scintillation counter (Packard). Data was analyzed and Ki values were determined using GraphPad Prism.

T1 sequence (Q99705 whole entry): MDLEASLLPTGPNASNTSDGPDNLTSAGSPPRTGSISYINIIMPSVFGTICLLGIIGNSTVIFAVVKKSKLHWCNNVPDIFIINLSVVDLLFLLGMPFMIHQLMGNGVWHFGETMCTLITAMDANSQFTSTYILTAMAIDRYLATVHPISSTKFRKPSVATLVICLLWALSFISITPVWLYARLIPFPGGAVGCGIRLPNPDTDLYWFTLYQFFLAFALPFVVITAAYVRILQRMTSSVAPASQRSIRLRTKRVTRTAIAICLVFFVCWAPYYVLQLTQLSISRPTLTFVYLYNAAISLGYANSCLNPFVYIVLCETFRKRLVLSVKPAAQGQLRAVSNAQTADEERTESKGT

| Compound | Ki [µM] |
| --- | --- |
| N#Cc1cccc(-c2ccc(C3(CCC(=O)Nc4cc(F)cc(C(F)(F)F)c4)CCN(CC4CC4)CC3)cc2)c1 | 0.049 |
| CC1CCC(N2CCC(OCC(=O)Nc3cc(Cl)cc(Cl)c3)(c3ccc(-c4cccc(C#N)c4)cc3)CC2)C1 (stereo not drawn) | 0.011 |
| O=Cc1cccc(-c2ccc(C3(NCC(=O)Nc4ccc(F)c(Cl)c4)CCN(C4CCCC4)CC3)cc2)c1 | 0.021 |
